In article PMC6277767, “Broad and Region-Specific Impacts of the Synthetic Cannabinoid CP 55,940 in Adolescent and Adult Female Mouse Brains” (Frontiers in Molecular Neuroscience, 2018):

System: CD1 female mouse brain lipidome
Assay: Brain-region lipid levels (HPLC/MS/MS lipidomics) 2 h after single i.p. 3 mg/kg CP 55,940 vs vehicle
Assay type: in vivo
Set-up: N-arachidonoyl phenylalanine level, Mean / N-stearoyl tryptophan level, Mean / N-stearoyl proline level, Mean / N-stearoyl leucine level, Mean / N-stearoyl phenylalanine level, Mean / N-stearoyl serine level, Mean / N-stearoyl methionine level, Mean: unit: moles per gram
Conditions: cerebellum
Experimental: The Bloomington Institutional Animal Care and Use Committee of Indiana University reviewed and approved the animal procedures. Female mice from the CD1 strain were utilized to match our study examining THC’s effects on the brain lipidome ([Leishman et al., 2018]). Mice were given a single i.p. injection of either 3 mg/kg CP or 1:1:18 cremophor:ethanol:saline vehicle (please refer to the section “3 mg/kg CP Is Relevant for Synthetic Cannabinoid Abuse and Has Stronger Effects on the Female Mouse Brain Lipidome During Adolescence” for a justification of dose and use of female mice). Three different age groups were given injections: PND 35 and PND 50 adolescents, and adult mice (PND 113). At least eight mice in each age group received CP and at least eight received vehicle. Matching the THC study time course ([Leishman et al., 2018]), mice were sacrificed via rapid decapitation 2 h after injection. Brains were immediately removed and flash-frozen in liquid nitrogen, and then stored at -80°C until dissections were performed. Brains were dissected on an ice-cold dissection plate into the following regions: STR, HIPP, CER, THAL, CTX, HYP, MID, and STEM. These abbreviations for these brain areas will be used exclusively when discussing the results generated by these specific dissections. Each dissected area was immediately placed in liquid nitrogen and then stored at -80°C until used for lipid extraction.
Tissue extracts were performed as previously described ([Bradshaw et al., 2006]; [Stuart et al., 2013]; [Raboune et al., 2014]; [Leishman et al., 2016a],[b], [2017], [2018]). First, samples were shock frozen in liquid nitrogen, weighed, and transferred to a centrifuge tube. The mass of the largest sample was multiplied by 50 to determine how many milliliters of HPLC-grade methanol (Fisher, Fair Lawn, NJ, United States) to add. Then, samples were spiked with 500 pmol deuterium-labeled NAGly (d8NAGly; Cayman Chemical, Ann Arbor, MI, United States). Samples were placed on ice in darkness for 2 h then individually homogenized and centrifuged at 19,000 × g for 20 min at 20°C. Supernatants were diluted with HPLC water (purified in house) to make a solution of 75% water, 25% supernatant. Lipids were partially purified on C18 solid phase extraction columns (Agilent, Palo Alto, CA, United States). A series of four elutions with 1.5 mL of 60%, 75%, 85%, and 100% methanol were collected ([Stuart et al., 2013]; [Leishman et al., 2016a],[b], [2018]).
As previously described ([Bradshaw et al., 2006]; [Tan et al., 2006]; [Smoum et al., 2010]; [Stuart et al., 2013]; [Tortoriello et al., 2013]; [Raboune et al., 2014]; [Leishman et al., 2016a],[b], [2017], [2018]), samples were analyzed using an Applied Biosystems API 3000 triple quadrupole mass spectrometer with electrospray ionization (Foster City, CA, United States). Using an Agilent XDB-C18 reversed phase analytical column and optimized mobile phase gradients, 20 μL from each elution were chromatographed. Two Shimadzu 10ADvp pumps (Columbia, MD, United States) provided the pressure for gradient elution. Mobile phase A: 20% methanol, 80% water (v/v) and 1 mM ammonium acetate (Sigma, St. Louis, MO, United States). Mobile phase B: 100% methanol, 1 mM ammonium acetate. Every method run began with 0% mobile phase B, reached 100% mobile phase B flowing at 0.2 mL/min, and gradually returned to 0% mobile phase B.
This screening library will be referred to as the lipidome when discussing data from this study. HPLC/MS/MS data were analyzed using Analyst software (Applied Biosystems) ([Bradshaw et al., 2006]; [Tan et al., 2006]; [Stuart et al., 2013]; [Tortoriello et al., 2013]; [Raboune et al., 2014]; [Leishman et al., 2016a],[b], [2017], [2018]). Chromatograms (Supplementary Figure 3) were generated by determining the retention time of analytes from the analytical column with a [M-1] or [M+1] parent peak and a fragmentation peak corresponding to the programmed values. […]

[1] = PND 50 female mice, 3 mg/kg CP 55,940
[2] = WT adult female mice, 3mg/kg CP 55,940

SMILES: CCCCCCC(C)(C)c1ccc([C@@H]2C[C@H](O)CC[C@H]2CCCO)c(O)c1 [CP 55,940]
- N-arachidonoyl phenylalanine level, Mean [1]: 2.55E-13
- N-arachidonoyl proline level, Mean [1]: BDL
- N-arachidonoyl serine level, Mean [1]: 4.25E-12
- N-arachidonoyl taurine level, Mean [1]: 1.97E-11
- N-arachidonoyl tryptophan level, Mean [1]: BDL
- N-arachidonoyl tyrosine level, Mean [1]: 2.66E-13
- N-docosahexaenoyl GABA level, Mean [1]: 9.21E-13
- N-docosahexaenoyl ethanolamine level, Mean [1]: 3.09E-11
- N-docosahexaenoyl glycine level, Mean [1]: 4.01E-13
- N-docosahexaenoyl leucine level, Mean [1]: 2.06E-13
- N-docosahexaenoyl phenylalanine level, Mean [1]: 2.68E-13
- N-docosahexaenoyl proline level, Mean [1]: BDL
- N-docosahexaenoyl serine level, Mean [1]: 8.95E-12
- N-docosahexaenoyl tryptophan level, Mean [1]: BDL
- N-docosahexaenoyl tyrosine level, Mean [1]: 6.76E-13
- N-linoleoyl GABA level, Mean [1]: 6.58E-13
- N-linoleoyl alanine level, Mean [1]: 7.79E-14
- N-linoleoyl ethanolamine level, Mean [1]: 3.74E-11
- N-linoleoyl glycine level, Mean [1]: 1.39E-13
- N-linoleoyl leucine level, Mean [1]: 5.12E-14
- N-linoleoyl proline level, Mean [1]: BDL
- N-linoleoyl serine level, Mean [1]: 5.53E-11
- N-linoleoyl tryptophan level, Mean [1]: BDL
- N-linoleoyl tyrosine level, Mean [1]: BDL
- N-nervonoyl valine level, Mean [1]: BDL
- N-oleoyl GABA level, Mean [1]: 2.42E-12
- N-oleoyl alanine level, Mean [1]: 9.8E-13
- N-oleoyl dopamine level, Mean [1]: BDL
- N-oleoyl ethanolamine level, Mean [1]: 6.07E-11
- N-oleoyl glycine level, Mean [1]: 1.13E-12
- N-oleoyl leucine level, Mean [1]: 5.63E-13
- N-oleoyl methionine level, Mean [1]: 2.55E-13
- N-oleoyl phenylalanine level, Mean [1]: 1.01E-12
- N-oleoyl proline level, Mean [1]: BDL
- N-oleoyl serine level, Mean [1]: 1.05E-10
- N-oleoyl tryptophan level, Mean [1]: BDL
- N-oleoyl tyrosine level, Mean [1]: 3.12E-13
- N-oleoyl valine level, Mean [1]: 4.78E-14
- N-palmitoyl GABA level, Mean [1]: 5.13E-12
- N-palmitoyl alanine level, Mean [1]: 2.64E-12
- N-palmitoyl ethanolamine level, Mean [1]: 5.07E-11
- N-palmitoyl glycine level, Mean [1]: 3.72E-12
- N-palmitoyl leucine level, Mean [1]: 1.13E-12
- N-palmitoyl methionine level, Mean [1]: 9.79E-13
- N-palmitoyl phenylalanine level, Mean [1]: 1.27E-12
- N-palmitoyl proline level, Mean [1]: BDL
- N-palmitoyl serine level, Mean [1]: 1.43E-11
- N-palmitoyl tryptophan level, Mean [1]: BDL
- N-palmitoyl tyrosine level, Mean [1]: 6.09E-13
- N-palmitoyl valine level, Mean [1]: 1.77E-13
- N-stearoyl GABA level, Mean [1]: 5.74E-12
- N-stearoyl alanine level, Mean [1]: 1.16E-12
- N-stearoyl ethanolamine level, Mean [1]: 2.6E-11
- N-stearoyl glycine level, Mean [1]: 5.05E-13
- N-stearoyl leucine level, Mean [1]: 8.15E-13
- N-stearoyl methionine level, Mean [1]: 4.91E-13
- N-stearoyl phenylalanine level, Mean [1]: 1.17E-12
- N-stearoyl proline level, Mean [1]: BDL
- N-stearoyl serine level, Mean [1]: 3.32E-11
- N-stearoyl tryptophan level, Mean [1]: BDL
- N-stearoyl tyrosine level, Mean [1]: 1.08E-13
- Oleic acid level, Mean [1]: 2.36E-10
- PGE2 level, Mean [1]: 5.14E-11
- THC level, Mean [1]: BDL
- 2-arachidonoyl glycerol level, Mean [2]: 4.32E-09
- 2-linoleoyl glycerol level, Mean [2]: 2.44E-10
- 2-oleoyl glycerol level, Mean [2]: 1.94E-09
- 2-palmitoyl glycerol level, Mean [2]: 1.01E-10
- 6-ketoPGF1α level, Mean [2]: 2.25E-11
- Arachidonic acid level, Mean [2]: 7.51E-10
- Linoleic acid level, Mean [2]: 6.75E-10
- N-arachidonoyl GABA level, Mean [2]: 1.22E-11
- N-arachidonoyl ethanolamine level, Mean [2]: 1.33E-11
- N-arachidonoyl glycine level, Mean [2]: 1.43E-13
- N-arachidonoyl phenylalanine level, Mean [2]: 4.52E-14
- N-arachidonoyl taurine level, Mean [2]: 6.54E-11
- N-docosahexaenoyl GABA level, Mean [2]: 8.3E-12
- N-docosahexaenoyl ethanolamine level, Mean [2]: 2.78E-11
- N-docosahexaenoyl glycine level, Mean [2]: 7.91E-14
- N-docosahexaenoyl leucine level, Mean [2]: 1.51E-12
- N-docosahexaenoyl phenylalanine level, Mean [2]: 3.04E-14
- N-linoleoyl GABA level, Mean [2]: 7.7E-12
- N-linoleoyl alanine level, Mean [2]: 2.18E-13
- N-linoleoyl ethanolamine level, Mean [2]: 1.87E-11
- N-linoleoyl glycine level, Mean [2]: 6.99E-14
- N-linoleoyl serine level, Mean [2]: 1.99E-11
- N-oleoyl GABA level, Mean [2]: 1.65E-11
- N-oleoyl alanine level, Mean [2]: 2.34E-12
- N-oleoyl ethanolamine level, Mean [2]: 2.04E-10
- N-oleoyl glycine level, Mean [2]: 2.49E-13
- N-oleoyl leucine level, Mean [2]: 1.06E-12
- N-oleoyl phenylalanine level, Mean [2]: 6.03E-13
- N-oleoyl serine level, Mean [2]: 1.05E-10
- N-oleoyl tyrosine level, Mean [2]: 8.96E-13
- N-oleoyl valine level, Mean [2]: 2.42E-14
- N-palmitoyl GABA level, Mean [2]: 2.25E-11
- N-palmitoyl alanine level, Mean [2]: 1.61E-12
- N-palmitoyl ethanolamine level, Mean [2]: 6.47E-11
- N-palmitoyl glycine level, Mean [2]: 1.24E-12
- N-palmitoyl leucine level, Mean [2]: 1.34E-12
- N-palmitoyl methionine level, Mean [2]: 6.89E-12
- N-palmitoyl phenylalanine level, Mean [2]: 1.87E-13
